Results: patent US20090149417A1, “Methods and compositions for the treatment of cancer using benzopyrone-type PARP inhibitors” (priority 2007, published 2009)

Legend:
[1] = system: human MX-1 breast carcinoma; test: Human MX-1 breast carcinoma xenograft model in nude mice; type: in vivo
Experimental: (§1) Female athymic nude mice (nu/nu, Harlan) are 10 weeks old, and have a body weight (BW) range of 18.1-27.0 g on D1 of the study. The animals are fed ad libitu water (reverse osmosis, 1 ppm Cl) and NIH 31 Modified and Irradiated Lab Diet® consisting of 18.0% crude protein, 5.0% crude fat, and 5.0% crude fiber. The mice are housed on irradiated ALPHA-dri® bed-o-cobs® Laboratory Animal Bedding in static microisolators on a 12-hour light cycle at 21-22° C. (70-72° F.) and 40-60% humidity. PRC specifically complies with the recommendations of the Guide for Care and Use of Laboratory Animals with respect to restraint, husbandry, surgical procedures, feed and fluid regulation, and veterinary care. […]
The human MX-1 breast carcinoma utilized in the present study is maintained in nude mice by serial engraftment. […] Tumors are monitored twice weekly and then daily as their volumes approached 80-120 mm^3. […] Tumor size, in mm3, is calculated from: […]
(§2) Tumors are calipered twice weekly for the duration of the study. […] The time to endpoint (TTE) for each mouse is calculated according to the following equation: […]
(§3) where TTE is expressed in days, endpoint volume is in mm3, b is the intercept, and m is the slope of the line obtained by linear regression of a log-transformed tumor growth data set. […] The calculated TTE is usually less than the day on which an animal is euthanized for tumor size. […]

[2] = system: human SW620 colon adenocarcinoma; test: Human SW620 colon adenocarcinoma xenograft model in nude mice; type: in vivo
Experimental: as §1, with “The” for “Female athymic nude mice (nu/nu, Harlan) are 10 weeks old, and have a body weight (BW) range of 18.1-27.0 g on D1 of the study. The”
The human SW620 colon adenocarcinoma utilized in the present study is maintained in nude mice by serial engraftment. […] Tumors are monitored twice weekly and then daily as their volumes approached 80-120 mm^3. […] Tumor size, in mm3, is calculated from: […]
as §2, §3

[3] = once-daily or twice-weekly administration

O=c1ccc2c(I)c([N+](=O)[O-])ccc2o1 [IIIg, 5-iodo-6-nitro-benzopyrone]
Survival of tumor-bearing animals ([1]; biweekly intraperitoneal injection, 100 mg/kg): prolongs survival | Tumor growth [1, 3]: inhibits tumor growth | Survival of tumor-bearing animals ([2]; biweekly intraperitoneal injection, 50 mg/kg): prolongs survival | Tumor growth [2, 3]: inhibits tumor growth
